Source: patent US8969373B2, “HCV protease inhibitors” (Shanghai Tangrun Pharmaceuticals Co., Ltd., priority 2011, dated 2015)

Columns and labels:
[1] = tested on: HCV replicon (pSGR-399LM) in Huh7 cells; test: Inhibitory activity in the HCV replicon system (Renilla luciferase); format: cell-based; details: Hepatitis C virus, Huh-7, pSGR-399LM replicon Huh7 cells, 72 hr
Description: The Inhibitory Activity of Compounds in the HCV Replicon System
HCV replicon cell-line: The Huh7 cells were transfected with pSGR-399LM replicon DNA and cultured in the DMEM containing 10% FBS and 0.5 mg/mL G418. The cells were split at 1:3 to 1:5 every 3-4 days. The transfected cells were seeded in 96-well plates and cultured at 37° C., 5% CO2 for 24 hr.
Treatment with samples: To the HCV replicon Huh7 cells-line were added different concentration of the samples (i.e. compound Ik, wherein k=1, 2, 3 . . . 42), the each concentration for duplicate, and set no sample control wells. The concentration started at 400 nM, with quarter dilution to form five different concentrations of samples, that is 400 nM, 100 nM, 25 nM, 6.25 nM and 1.56 nM. The samples were added separately, and continued to incubated for 72 hr.
Fluorescence detection: After 72 hr treatment with sample, the cells were lysed and added with Renilla luciferase substrate to detect luminescent signal. The relative luminescent unit (RLU) in the luminometer was read out and used to calculate the inhibition rate of HCV.

[2] = tested on: HCV (J399EM virus) in Huh7.5.1 cells; test: Inhibition of HCV replication in HCV infected human hepatocellular carcinoma cells (Huh7.5.1), HCV-EGFP fluorescence; format: cell-based; details: Hepatitis C virus, Huh-7.5.1, 72 h, read-out: HCV infected human hepatocellular carcinoma cells in vitro EC50(nM)
Description: In Vitro Inhibitory Activity of Compounds in HCV Replication in HCV Infected Human Hepatocellular Carcinoma Cells (Huh7.5.1)
The preparation of Huh7.5.1cells: Huh 7.5.1 cells were seeded at a 96-well plate with 37 and 5% CO2 for 24 hours incubation.
Virus infection: Using the J399EM virus supernatants (moi≈0.1) to infect Huh7.5.1cells. At the same time, the no virus infected cell will be set up as the control. After 8 hours virus infection, the virus will be washed out with PBS.
Drug treatment: The different doses of samples (i.e. the compound Ik, wherein k=1, 2, 3, . . . 42) were added in J399EM infected Huh7.5.1 cells, the each dose for duplicate. At the same time the no sample added in wells will be set up as the control. The test dose of sample is starting from 25 nM or 400 nM, with quarter dilution, 5 doses of sample will be added in the test wells, respectively, then continued for 72 hours incubation.
HCV-EGFP fluorescence detection: After samples treatment for 72 hours, the autofluorescence of HCV-EGFP were measured by the luminometer with excitation of 488 nm, and emission of 516 nm. The related fluorescence unit (RFU) of samples will be read out and used for calculating the inhibitory rates of compounds in HCV replication.

Compound | EC50 [1] | EC50 [2]
C=C[C@@H]1C[C@]1(NC(=O)[C@@H]1C[C@@H](Oc2cc(-c3ccccc3)nc3c2sc2cccc(Cl)c23)CN1C(=O)[C@@H](NC(=O)OC(C)(C)C)C(C)(C)C)C(=O)NS(=O)(=O)C1CC1 [Compound 1] | 100 to 1000 nM | 100 to 1000 nM
C=C[C@@H]1C[C@]1(NC(=O)[C@@H]1C[C@@H](Oc2cc(-c3ccccc3)nc3c2oc2ccc(OC)cc23)CN1C(=O)[C@@H](NC(=O)OC(C)(C)C)C(C)(C)C)C(=O)NS(=O)(=O)C1CC1 [Compound 3, tert-butyl(S)-1-((2S,4R)-2-((1R,2S)-1-(cyclopropylsulfonylcarbamoyl)-2-vinylcyclopropylcarbamoyl)-4-(8-methoxy-2-phenylbenzofuro [3,2-b]pyridin-4-yloxy)pyrrolidin-1-yl)-3,3-dimethyl-1-oxobutan-2-yl carbamate] | < 100 nM | 100 to 1000 nM
C=C[C@@H]1C[C@]1(NC(=O)[C@@H]1C[C@@H](Oc2cc(-c3ccccc3)nc3c2oc2ccc(Cl)cc23)CN1C(=O)[C@@H](NC(=O)OC(C)(C)C)C(C)(C)C)C(=O)NS(=O)(=O)C1CC1 [Compound 4, tert-butyl(S)-1-((2S,4R)-4-(8-chloro-2-phenylbenzofuro[3,2-b]pyridin-4-yloxy)-2-((1R,2S)-1-(cyclopropylsulfonylcarbamoyl)-2-vinylcyclopropylcarbamoyl)pyrrolidin-1-yl)-3,3-dimethyl-1-oxobutan-2-yl carbamate] | < 100 nM | 100 to 1000 nM
CC(C)(C)OC(=O)N[C@H]1CCCCC/C=C\[C@@H]2C[C@@]2(C(=O)NS(=O)(=O)C2CC2)NC(=O)[C@@H]2C[C@@H](Oc3nc4c5ccccc5oc4c4ccccc34)CN2C1=O [Compound 6] | < 100 nM | < 100 nM
C=C[C@@H]1C[C@]1(NC(=O)[C@@H]1C[C@@H](Oc2cc(-c3ccccc3)nc3c2sc2cc(F)ccc23)CN1C(=O)[C@@H](NC(=O)OC(C)(C)C)C(C)(C)C)C(=O)NS(=O)(=O)C1CC1 [Compound 7] | < 100 nM | < 100 nM
C=C[C@@H]1C[C@]1(NC(=O)[C@@H]1C[C@@H](Oc2cc(-c3ccccc3)nc3c2oc2ccc(Br)cc23)CN1C(=O)[C@@H](NC(=O)OC(C)(C)C)C(C)(C)C)C(=O)NS(=O)(=O)C1CC1 [Compound 8] | < 100 nM | 100 to 1000 nM
C=C[C@@H]1C[C@]1(NC(=O)[C@@H]1C[C@@H](Oc2cc(-c3ccccc3)nc3c2sc2ccccc23)CN1C(=O)[C@@H](NC(=O)OC(C)(C)C)C(C)(C)C)C(=O)NS(=O)(=O)C1CC1 [Compound 9] | < 100 nM | 100 to 1000 nM
CC(C)(C)OC(=O)N[C@H]1CCCCC/C=C\[C@@H]2C[C@@]2(C(=O)NS(=O)(=O)C2CC2)NC(=O)[C@@H]2C[C@@H](Oc3nc4c5ccc(F)cc5sc4c4ccccc34)CN2C1=O [Compound 10] | < 100 nM | < 100 nM
C=C[C@@H]1C[C@]1(NC(=O)[C@@H]1C[C@@H](Oc2nc3c4cc(Cl)ccc4oc3c3ccccc23)CN1C(=O)[C@@H](NC(=O)OC(C)(C)C)C(C)(C)C)C(=O)NS(=O)(=O)C1CC1 [Compound 11] | < 100 nM | 100 to 1000 nM
C=C[C@@H]1C[C@]1(NC(=O)[C@@H]1C[C@@H](Oc2nc3c4ccc(F)cc4sc3c3ccccc23)CN1C(=O)[C@@H](NC(=O)OC(C)(C)C)C(C)(C)C)C(=O)NS(=O)(=O)C1CC1 [Compound 12] | < 100 nM | 100 to 1000 nM
C=C[C@@H]1C[C@]1(NC(=O)[C@@H]1C[C@@H](Oc2nc3c4cc(Cl)ccc4oc3c3ccccc23)CN1C(=O)[C@@H](CC(=O)OC(C)(C)C)C(C)(C)C)C(=O)NS(=O)(=O)C1CC1 [Compound 13] | 100 to 1000 nM | 100 to 1000 nM
C=C[C@@H]1C[C@]1(NC(=O)[C@@H]1C[C@@H](Oc2nc3c4cc(Cl)ccc4oc3c3ccccc23)CN1C(=O)[C@@H](CC(=O)N1CCCCC1)C(C)(C)C)C(=O)NS(=O)(=O)C1CC1 [Compound 14, (2S,4R)-1-((S)-2-tert-butyl-4-oxo-4-(piperidin-1-yl)butanoyl)-4-(8-chlorobenzofuro[3,2-c]isoquinolin-5-yloxy)-N-((1R,2S)-1-(cyclopropylsulfonylcarbamoyl)-2-vinylcyclopropyl)pyrrolidine-2-carboxamide] | < 100 nM | 100 to 1000 nM
C=C[C@@H]1C[C@]1(NC(=O)[C@@H]1C[C@@H](Oc2nc3c4cc(OC)ccc4oc3c3ccccc23)CN1C(=O)[C@@H](NC(=O)OC(C)(C)C)C(C)(C)C)C(=O)NS(=O)(=O)C1CC1 [Compound 15] | 100 to 1000 nM | 100 to 1000 nM
CC(C)(C)OC(=O)N[C@H]1CCCCC/C=C\[C@@H]2C[C@@]2(C(=O)NS(=O)(=O)C2CC2)NC(=O)[C@@H]2C[C@@H](Oc3nc4c5ccccc5oc4c4ccc(Br)cc34)CN2C1=O [Compound 16] | < 100 nM | < 100 nM
CC(C)(C)OC(=O)N[C@H]1CCCCC/C=C\[C@@H]2C[C@@]2(C(=O)NS(=O)(=O)C2CC2)NC(=O)[C@@H]2C[C@@H](Oc3nc4c5ccccc5oc4c4ccc(Cl)cc34)CN2C1=O [Compound 17] | < 100 nM | < 100 nM
COc1ccc2oc3c4ccc(Cl)cc4c(O[C@@H]4C[C@H]5C(=O)N[C@]6(C(=O)NS(=O)(=O)C7CC7)C[C@H]6/C=C\CCCCC[C@H](NC(=O)OC(C)(C)C)C(=O)N5C4)nc3c2c1 [Compound 19] | < 100 nM | < 100 nM
C=C[C@@H]1C[C@]1(NC(=O)[C@@H]1C[C@@H](Oc2nc3c4ccccc4oc3c3ccc(Cl)cc23)CN1C(=O)[C@@H](NC(=O)OC1CCCC1)C(C)(C)C)C(=O)NS(=O)(=O)C1CC1 [Compound 20] | < 100 nM | < 100 nM
C=C[C@@H]1C[C@]1(NC(=O)[C@@H]1C[C@@H](Oc2cc(-c3ccccc3)nc3c2oc2ccc(OC)cc23)CN1C(=O)[C@@H](NC(=O)OC1CCCC1)C(C)(C)C)C(=O)NS(=O)(=O)C1CC1 [Compound 21] | < 100 nM | 100 to 1000 nM
C=C[C@@H]1C[C@]1(NC(=O)[C@@H]1C[C@@H](Oc2cc(-c3ccccc3)nc3c2oc2ccc(OC)c(Cl)c23)CN1C(=O)[C@@H](NC(=O)OC1CCCC1)C(C)(C)C)C(=O)NS(=O)(=O)C1CC1 [Compound 22] | < 100 nM | < 100 nM
C=C[C@@H]1C[C@]1(NC(=O)[C@@H]1C[C@@H](Oc2cc(-c3ccccc3)nc3c2oc2ccc(OC)c(Cl)c23)CN1C(=O)[C@@H](NC(=O)OC(C)(C)C)C(C)(C)C)C(=O)NS(=O)(=O)C1CC1 [Compound 23] | < 100 nM | < 100 nM
C=C[C@@H]1C[C@]1(NC(=O)[C@@H]1C[C@@H](Oc2cc(-c3csc(C(C)C)n3)nc3c2oc2ccc(OC)c(Cl)c23)CN1C(=O)[C@@H](NC(=O)OC(C)(C)C)C(C)(C)C)C(=O)NS(=O)(=O)C1CC1 [Compound 24] | < 100 nM | < 100 nM
C=C[C@@H]1C[C@]1(NC(=O)[C@@H]1C[C@@H](Oc2cc(-c3csc(C(C)(C)O)n3)nc3c2oc2ccc(OC)c(Cl)c23)CN1C(=O)[C@@H](NC(=O)OC(C)(C)C)C(C)(C)C)C(=O)NS(=O)(=O)C1CC1 [Compound 25] | < 100 nM | < 100 nM
C=C[C@@H]1C[C@]1(NC(=O)[C@@H]1C[C@@H](Oc2cc(-c3csc(C(C)(C)O)n3)nc3c2oc2ccc(OC)c(Br)c23)CN1C(=O)[C@@H](NC(=O)OC(C)(C)C)C(C)(C)C)C(=O)NS(=O)(=O)C1CC1 [Compound 26] | < 100 nM | < 100 nM
C=C[C@@H]1C[C@]1(NC(=O)[C@@H]1C[C@@H](Oc2cc(-c3ccccc3)nc3c2oc2ccc(OC)c(Br)c23)CN1C(=O)[C@@H](NC(=O)OC(C)(C)C)C(C)(C)C)C(=O)NS(=O)(=O)C1CC1 [Compound 27] | < 100 nM | < 100 nM
